Patent US20020038028A1, “7-Hetero-bicyclo[2.2.1]-heptanes” (priority 1998, published 2002)

| SMILES | melting point |
| --- | --- |
| Cl.Oc1ccc(C2CC3CCC2N3)cc1 (centres unmarked) | 242.5 to 244 °C |
| Cl.O=C(O)c1ccc(C2CC3CCC2N3)cc1 (centres unmarked) | 261.5 to 264.5 °C |
| CSc1ccc(C2CC3CCC2N3)cc1.Cl (centres unmarked) | 216.5 to 218 °C |
| Cl.N=C(N)c1ccc(C2CC3CCC2N3)cc1 (centres unmarked) | 198.5 to 201 °C |
| COC(=O)c1ccc(C2CC3CCC2N3)cc1.Cl (centres unmarked) | 235 to 236 °C |
